Test results reported in ChEMBL document CHEMBL3046467, “Structure-activity relationship of carboxin-related carboxamides as fungicide” (2011).

Experiments:
Assay type in all cases: functional
Pyricularia grisea [1] = assay: Fungicidal activity against Magnaporthe grisea spores inoculated on leaves of compound pre-treated 2 or 3 leaf-stage rice plants assessed as rice blast disease control level at 250 ppm measured after 7 days post fungal inoculation
Podosphaera xanthii [2] = assay: Fungicidal activity against Podosphaera xanthii (powdery mildew) spores inoculated on leaves of compound pre-treated 1.5 leaf-stage cucumber plants assessed as powdery mildew disease control level at 250 ppm measured after 7 days post fungal inoculation
Botrytis cinerea [3] = assay: Fungicidal activity against Botryotinia fuckeliana spores inoculated on leaves of compound pre-treated seed-leaf stage kidney beans assessed as gray mold disease control level at 62.5 ppm measured after 4 days post fungal inoculation
Puccinia recondita [4] = assay: Fungicidal activity against Puccinia recondita spores inoculated on leaves of compound pre-treated 1.5 leaf-stage wheat plants assessed as wheat brown rust disease control level at 25 ppm measured after 8 days post fungal inoculation
Pyricularia grisea [5] = assay: Fungicidal activity against Magnaporthe grisea spores inoculated on leaves of compound pre-treated 2 or 3 leaf-stage rice plants assessed as rice blast disease control level at 50 ppm measured after 7 days post fungal inoculation
Podosphaera xanthii [6] = assay: Fungicidal activity against Podosphaera xanthii (powdery mildew) spores inoculated on leaves of compound pre-treated 1.5 leaf-stage cucumber plants assessed as powdery mildew disease control level at 25 ppm measured after 7 days post fungal inoculation
Botrytis cinerea [7] = assay: Fungicidal activity against Botryotinia fuckeliana spores inoculated on leaves of compound pre-treated seed-leaf stage kidney beans assessed as gray mold disease control level at 500 ppm measured after 4 days post fungal inoculation
Puccinia recondita [8] = assay: Fungicidal activity against Puccinia recondita spores inoculated on leaves of compound pre-treated 1.5 leaf-stage wheat plants assessed as wheat brown rust disease control level at 250 ppm measured after 8 days post fungal inoculation

Row | SMILES | Activity (Pyricularia grisea [1]) | Activity (Podosphaera xanthii [2]) | Activity (Botrytis cinerea [3]) | Activity (Puccinia recondita [4]) | Activity (Pyricularia grisea [5]) | Activity (Podosphaera xanthii [6]) | Activity (Botrytis cinerea [7]) | Activity (Puccinia recondita [8])
1 | Cc1nn(C)cc1C(=O)Nc1ccccc1-c1ccccc1 | <95% | <95% | >=50% | – | – | – | – | –
2 | Cc1nc(C)c(C(=O)Nc2ccccc2-c2ccccc2)s1 | <95% | >=95% | >=50% | – | – | – | – | –
3 | CCC(CC)c1sccc1NC(=O)c1cn(C)nc1C(F)(F)F | <95% | <95% | >=95% | >=50% | – | – | – | –
4 | Cc1ccsc1C(=O)Nc1ccsc1C(C)CC(C)C (configuration not stated) | – | – | >=95% | >=95% | >=95% | >=95% | – | –
5 | Cc1nc(C(F)(F)F)c(C(=O)Nc2ccccc2-c2ccccc2)s1 | >=95% | – | >=95% | – | – | >=50% | – | –
6 | CC(C)CC(C)c1sccc1NC(=O)c1ccccc1Cl (configuration not stated) | <95% | – | – | >=95% | – | >=50% | >=95% | –
7 | CC(C)CC(C)c1sccc1NC(=O)c1cn(C)nc1Cl (configuration not stated) | – | – | >=95% | >=95% | >=50% | >=50% | – | –
8 | CC(C)CC(C)c1ccccc1NC(=O)c1cn(C)nc1C(F)(F)F (configuration not stated) | – | – | >=95% | >=95% | >=95% | >=95% | – | –
9 | CC(C)CCc1sccc1NC(=O)c1cn(C)nc1C(F)(F)F | – | – | >=95% | >=95% | – | >=50% | – | –
10 | CCC(C)c1ccccc1NC(=O)c1cn(C)nc1C(F)(F)F (configuration not stated) | <95% | – | >=95% | >=95% | – | >=50% | – | –
11 | CC1=C(C(=O)Nc2ccccc2-c2ccccc2)CCCO1 | <95% | – | >=50% | >=50% | – | >=95% | – | –
12 | Cc1nc(C)c(C(=O)Nc2ccsc2C(C)CC(C)C)s1 (configuration not stated) | – | – | >=95% | >=95% | >=95% | >=50% | – | –
13 | CC1=C(C(=O)Nc2ccsc2C(C)CC(C)C)SCCO1 (configuration not stated) | >=95% | >=95% | >=95% | >=95% | – | – | – | –
14 | CC1=C(C(=O)Nc2ccccc2-c2ccccc2)SCCO1 | <95% | – | >=95% | – | – | >=50% | – | <95%
15 | CC1=C(C(=O)Nc2ccsc2C(C)CC(C)C)CCCO1 (configuration not stated) | – | – | >=95% | >=95% | >=95% | >=50% | – | –
16 | Cc1ccsc1C(=O)Nc1ccccc1-c1ccccc1 | <95% | >=95% | >=95% | – | – | – | – | <95%
17 | Cn1cc(C(=O)Nc2ccsc2-c2ccccc2)c(C(F)(F)F)n1 | <95% | – | >=95% | – | – | >=50% | – | <95%
18 | Cc1nc(C(F)(F)F)c(C(=O)Nc2ccsc2C(C)CC(C)C)s1 (configuration not stated) | – | – | >=95% | >=95% | – | >=95% | – | –
19 | CC(C)c1ccccc1NC(=O)c1cn(C)nc1C(F)(F)F | <95% | >=95% | >=95% | >=95% | – | – | – | –
20 | CC(CC(C)(C)C)c1sccc1NC(=O)c1cn(C)nc1C(F)(F)F (configuration not stated) | <95% | – | – | >=95% | – | >=95% | <95% | –
21 | O=C(Nc1ccccc1-c1ccccc1)c1cccnc1Cl | <95% | <95% | >=50% | – | – | – | – | –
22 | CC(C)CC(C)c1sccc1NC(=O)c1nccnc1Cl (configuration not stated) | >=95% | <95% | >=95% | >=95% | – | – | – | –
23 | CC1CC(C)(C)c2cccc(NC(=O)c3cn(C)nc3C(F)(F)F)c21 (configuration not stated) | <95% | <95% | >=95% | >=95% | – | – | – | –

Row | SMILES | Activity (Pyricularia grisea [1]) | Activity (Podosphaera xanthii [2]) | Activity (Botrytis cinerea [3]) | Activity (Puccinia recondita [4]) | Activity (Pyricularia grisea [5]) | Activity (Podosphaera xanthii [6]) | Activity (Botrytis cinerea [7]) | Activity (Puccinia recondita [8])
24 | O=C(Nc1ccccc1-c1ccccc1)c1ccccc1Cl | <95% | <95% | >=95% | – | – | – | – | –
25 | Cc1nc(C(F)F)c(C(=O)Nc2ccccc2-c2ccccc2)s1 | >=95% | – | >=95% | – | – | >=50% | – | <95%
26 | Cn1cc(C(=O)Nc2ccccc2-c2ccccc2)c(C(F)(F)F)n1 | <95% | – | >=95% | – | – | >=50% | – | >=95%
27 | Cc1occc1C(=O)Nc1ccsc1C(C)CC(C)C (configuration not stated) | – | – | >=95% | >=95% | >=95% | >=95% | – | –
28 | CCC(C)CC(C)c1sccc1NC(=O)c1cn(C)nc1C(F)(F)F (configuration not stated) | – | – | >=50% | >=95% | >=95% | >=95% | – | –
29 | CCC(C)C(C)c1sccc1NC(=O)c1cn(C)nc1C(F)(F)F (configuration not stated) | – | – | >=95% | >=95% | >=50% | >=95% | – | –
30 | Cc1nc(C(F)F)c(C(=O)Nc2ccsc2C(C)CC(C)C)s1 (configuration not stated) | – | – | >=95% | >=95% | >=95% | >=95% | – | –
31 | CC1CC(C)(C)c2cccc(NC(=O)c3cccnc3Cl)c21 (configuration not stated) | <95% | <95% | >=50% | – | – | – | – | <95%
32 | CCc1sccc1NC(=O)c1cn(C)nc1C(F)(F)F | – | – | – | – | – | – | >=95% | –
33 | CCCCCC(C)c1sccc1NC(=O)c1cn(C)nc1C(F)(F)F (configuration not stated) | <95% | – | >=50% | >=95% | – | >=50% | – | –
34 | CC(C)CC(C)c1sccc1NC(=O)c1cn(C)nc1C(F)(F)F (configuration not stated) [PENTHIOPYRAD] | – | – | >=95% | >=95% | >=95% | >=95% | – | –
35 | CC(C)CC(C)c1sccc1NC(=O)c1cccnc1Cl (configuration not stated) | – | – | >=50% | – | – | >=95% | – | –
36 | CCCCC(C)c1sccc1NC(=O)c1cn(C)nc1C(F)(F)F (configuration not stated) | >=95% | – | >=95% | >=95% | – | >=50% | – | –
37 | CCC(C)c1sccc1NC(=O)c1cn(C)nc1C(F)(F)F (configuration not stated) | <95% | – | >=95% | >=95% | – | >=50% | – | –
38 | Cc1nc(Cl)c(C(=O)Nc2ccccc2-c2ccccc2)s1 | <95% | <95% | – | – | – | – | <95% | <95%
39 | O=C(Nc1ccccc1-c1ccccc1)c1nccnc1Cl | <95% | >=95% | >=95% | – | – | – | – | <95%
40 | CC(C)CCC(C)c1sccc1NC(=O)c1cn(C)nc1C(F)(F)F (configuration not stated) | >=95% | – | – | >=95% | – | >=50% | >=95% | –
41 | CCCC(C)c1sccc1NC(=O)c1cn(C)nc1C(F)(F)F (configuration not stated) | <95% | – | >=95% | >=95% | – | >=95% | – | –
42 | CC(C)c1sccc1NC(=O)c1cn(C)nc1C(F)(F)F | <95% | >=95% | >=95% | >=95% | – | – | – | –
43 | Cc1occc1C(=O)Nc1ccccc1-c1ccccc1 | >=95% | <95% | >=95% | – | – | – | – | >=95%
44 | CC(C)CC(C)c1sccc1NC(=O)c1cn(C)nc1C(F)F (configuration not stated) | – | – | >=95% | >=95% | >=95% | >=95% | – | –
45 | Cc1nn(C)cc1C(=O)Nc1ccsc1C(C)CC(C)C (configuration not stated) | – | >=95% | >=95% | >=95% | >=50% | – | – | –
46 | Cn1cc(C(=O)Nc2ccccc2-c2ccccc2)c(Cl)n1 | <95% | <95% | – | – | – | – | <95% | <95%
